Source: US9120744B2, “Plasminogen activator inhibitor-1 inhibitors and methods of use thereof to modulate lipid metabolism” (THE REGENTS OF THE UNIVERSITY OF MICHIGAN, priority 2007, dated 2015)
One block for each molecule: values may come before it. Where a SMILES comes first, the peptide text is derived from it. [ ]: non-standard residue; d: D form. The star is where a group is joined. Tyr(3-NO2) = N[C@@H](Cc1ccc(O)c([N+](=O)[O-])c1)C(=O)O; Boc = CC(C)(C)OC(=O)*

What was measured:
[1] = target: T1, recombinant active human PAI-1 (Homo sapiens (Human), UniProt P05121); experiment: pH dependence of PAI-1 inhibition, fluorogenic uPA (or tPA) assay; type: biochemical; settings: for effect of pH on PAI-1 inhibition (in words): pH 6.5 to 8.5; for PAI-1 inhibitory efficacy (in words): pH 7.5 (FIG. 8), additional experiments
T1 sequence (P05121 24-402): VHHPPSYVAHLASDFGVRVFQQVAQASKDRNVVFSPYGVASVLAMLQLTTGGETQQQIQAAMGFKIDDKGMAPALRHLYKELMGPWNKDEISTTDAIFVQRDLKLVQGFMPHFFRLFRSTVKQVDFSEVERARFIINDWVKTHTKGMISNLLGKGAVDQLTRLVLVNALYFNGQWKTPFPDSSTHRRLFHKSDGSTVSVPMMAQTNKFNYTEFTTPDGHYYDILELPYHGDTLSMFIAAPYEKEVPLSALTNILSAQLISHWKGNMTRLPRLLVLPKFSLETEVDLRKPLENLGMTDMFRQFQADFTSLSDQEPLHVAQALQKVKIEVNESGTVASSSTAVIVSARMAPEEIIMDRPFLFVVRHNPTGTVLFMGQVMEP

[2] = target: T1, recombinant active human PAI-1; experiment: Chromogenic uPA assay of PAI-1 inhibition (pGlu-Gly-Arg pNA); type: biochemical
[3] = target: T1, recombinant active human PAI-1; experiment: Fluorometric IC50 plate assay (PAI-1 inhibition of uPA, Z-Gly-Gly-Arg-AMC); type: biochemical; settings: in vitro, PAI-1 1 nM, uPA 2.5 nM, pH 7.8, 10% DMSO; ND = not detected, e.g. no inhibition
[4] = target: T2, PAI-1 (Homo sapiens (Human), UniProt P05121); experiment: Surface plasmon resonance, loss of PAI-1 binding to immobilized anhydrotrypsin; settings: PAI-1 2 nM preincubated with compound, SPR; read-out: Apparent KD (nM) ± SEM
Target sequence in this assay (P05121 24-402): as above

[5] = target: T2, PAI-1; settings: cited from earlier work
Target sequence in this assay (P05121 24-402, species assumed): as the sequence (P05121 24-402) above

[6] = system: PAI-1 null mice; experiment: Oral PAI-039 in PAI-1 null mice, lipid analysis; type: in vivo, mouse; settings: two weeks in chow
[7] = system: C57BL/6J and 129 mice; experiment: Oral PAI-039 in chow for two weeks, plasma PAI-1 activity and lipid profiles; type: in vivo, mouse
[8] = system: PAI-1; experiment: PAI-1 activity assay in ex vivo plasma with and without vitronectin; type: biochemical; settings: plasma of PAI-1 null or PAI-1/vitronectin null mice, 20 nM PAI-1
[9] = target: recombinant active human PAI-1 preincubated with vitronectin (Homo sapiens (Human), UniProt P05121); experiment: Inhibition of vitronectin-bound PAI-1 by tannic acid, chromogenic uPA assay; type: biochemical; settings: 5-fold molar excess of vitronectin
Sequence of recombinant active human PAI-1 preincubated with vitronectin (P05121 24-402): as above
Sequence of recombinant active human PAI-1 preincubated with vitronectin (P04004 20-478 partner): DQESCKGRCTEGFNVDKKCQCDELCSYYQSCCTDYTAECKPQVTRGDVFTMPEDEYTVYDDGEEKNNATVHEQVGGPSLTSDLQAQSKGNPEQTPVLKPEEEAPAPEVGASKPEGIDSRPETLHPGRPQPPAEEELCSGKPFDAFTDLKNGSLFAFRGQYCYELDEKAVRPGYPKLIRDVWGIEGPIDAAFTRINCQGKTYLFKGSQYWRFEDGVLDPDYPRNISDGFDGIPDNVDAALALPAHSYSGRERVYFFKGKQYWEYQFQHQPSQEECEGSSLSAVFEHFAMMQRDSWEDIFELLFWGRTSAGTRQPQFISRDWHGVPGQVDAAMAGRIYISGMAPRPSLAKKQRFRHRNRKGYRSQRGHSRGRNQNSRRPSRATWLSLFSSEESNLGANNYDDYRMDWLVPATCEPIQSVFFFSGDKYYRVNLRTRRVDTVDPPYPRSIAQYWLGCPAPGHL

[10] = target: T2, PAI-1; experiment: SDS-PAGE analysis of PAI-1:plasminogen activator complex formation; type: biochemical; settings: tannic acid 0-100 μM, uPA or tPA
Target sequence in this assay (P05121 24-402): as the sequence (P05121 24-402) above

[11] = target: T1, recombinant active human PAI-1; experiment: High throughput uPA chromogenic screen for PAI-1 inactivators; type: biochemical; settings: 10 μM compound; hit = more than 3 standard deviations above control
[12] = target: active mouse PAI-1 (Mus musculus (Mouse), UniProt P22777); experiment: Ex vivo plasma Luminex assay, mouse plasma spiked with active mouse PAI-1; type: biochemical; settings: mouse plasma spiked with active mouse PAI-1 3-4 ng/mL
Sequence of active mouse PAI-1 (P22777 23-402): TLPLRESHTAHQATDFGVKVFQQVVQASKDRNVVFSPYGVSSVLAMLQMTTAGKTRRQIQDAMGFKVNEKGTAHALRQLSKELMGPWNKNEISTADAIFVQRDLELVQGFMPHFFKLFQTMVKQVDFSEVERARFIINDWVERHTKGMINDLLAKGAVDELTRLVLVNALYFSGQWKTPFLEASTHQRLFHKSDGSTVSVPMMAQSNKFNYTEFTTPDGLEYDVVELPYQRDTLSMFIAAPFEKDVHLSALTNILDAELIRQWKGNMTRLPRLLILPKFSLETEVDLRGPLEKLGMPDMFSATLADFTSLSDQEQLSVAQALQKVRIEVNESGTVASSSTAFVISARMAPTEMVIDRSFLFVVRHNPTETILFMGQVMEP

[13] = target: T1, recombinant active human PAI-1; experiment: β-trypsin screening assay for PAI-1 inhibitors; type: biochemical; settings: 10 μM compound; hit = more than 3 standard deviations above control;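 note: fluorogenic readout with PAI-1 and β-trypsin at 10:1 molar ratio, untreated PAI-1 wells set as 100% PAI-1 activity and β-trypsin alone as 0%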

Compound: O=C(O)c1cc(O)c(O)c(O)c1 [gallic acid]
- effect of pH on PAI-1 inhibition (in words) [1]: increased with increasing pH to 8.5
- fold less active toward PAI-1 than tannic acid ([2]; FIG. 2): approximately 1000 fold
- fold less active toward PAI-1 than tannic acid ([2]; other data (not shown)): up to 4000 fold

Compound: COc1cc(C(=O)OCCOC(=O)c2cc(OC)c(O)c(OC)c2)cc(OC)c1O [CDE-069]
- IC50 [3]: 562 µM

Compound: CC(C)(C)OC(=O)N[C@@H](Cc1ccc(O)c([N+](=O)[O-])c1)C(=O)N[C@@H](Cc1ccc(O)c([N+](=O)[O-])c1)C(=O)O [CDE-035] (Boc-[Tyr(3-NO2)]-[Tyr(3-NO2)]-OH)
- IC50 [3]: 146 µM

Compound: O=C(OCCOC(=O)c1cccc(OC(=O)c2cc(O)c(O)c(O)c2)c1)c1cccc(OC(=O)c2cc(O)c(O)c(O)c2)c1 [CDE-041]
- IC50 [3]: 47.9 µM

Compound: CCN(CCN(CC)S(=O)(=O)c1ccc(O)c(O)c1)S(=O)(=O)c1ccc(O)c(O)c1 [CDE-032]
- IC50 [3]: 10.2 µM
- effect of pH on PAI-1 inhibition (in words) [1]: increased with increasing pH
- PAI-1 inhibitory efficacy (in words) [1]: effective inhibitors of PAI-1

Compound: O=C(OCCOC(=O)c1ccc(O)cc1O)c1ccc(O)cc1O [CDE-051]
- IC50 [3]: 28.7 µM

Compound: O=C(O)C(=O)c1cn(Cc2ccccc2)c2ccc(-c3ccc(OC(F)(F)F)cc3)cc12 [PAI-039, tiplaxtinin]
- inhibition of vitronectin bound PAI-1 (in words) [5]: does not inhibit vitronectin bound PAI-1
- effect on metabolism (lipid profile) in PAI-1 null mice (in words) [6]: no significant effect
- HDL cholesterol increase [7]; 129: 45%
- VLDL decrease [7]; 129: 35%
- HDL cholesterol increase ([7]; C57BL/6J): 11%
- VLDL decrease ([7]; C57BL/6J): 49%
- plasma level of active PAI-1 ([7]; C57BL/6J mice, 5 mg PAI-039/gram of chow, two weeks): 0.37 ± 0.08 ng/mL
- VLDL average decrease ([7]; average of C57BL/6J and 129): 42%
- HDL higher, average increase for C57BL/6J and 129 mice ([7]; average of both strains): approximately 28%
- PAI-1 inhibition in plasma with or without vitronectin (in words) [8]: only inhibitory in plasma that lacks vitronectin

Compound: O=C(OC[C@H]1O[C@@H](OC(=O)c2cc(O)c(O)c(OC(=O)c3cc(O)c(O)c(O)c3)c2)[C@H](OC(=O)c2cc(O)c(O)c(OC(=O)c3cc(O)c(O)c(O)c3)c2)[C@@H](OC(=O)c2cc(O)c(O)c(OC(=O)c3cc(O)c(O)c(O)c3)c2)[C@@H]1OC(=O)c1cc(O)c(O)c(OC(=O)c2cc(O)c(O)c(O)c2)c1)c1cc(O)c(O)c(OC(=O)c2cc(O)c(O)c(O)c2)c1 [Tannic acid, tannic acid]
- inhibition of vitronectin-bound PAI-1 (in words) [9]: inhibited PAI-1 activity even when bound to vitronectin
- IC50 ([1]; pH 6.5): 7.36 µM
- effect of pH on PAI-1 inhibition (in words) [1]: improved by increasing pH
- IC50 ([1]; pH 7.5): 7.15 µM
- IC50 ([1]; pH 8.5): 0.0091 µM
- IC50 ([2]; some experiments (not shown in FIG. 2)): 2.5 µM
- effect on PAI-1:PA complex formation (in words) [10]: converts PAI-1 to a substrate for PAs
- screening hit: restoration of uPA activity [11]: positive hits
- IC50 [12]: 9.68 µM
- screening hit: restoration of β-trypsin activity [13]: demonstrate PAI-1 inhibitor activity

Compound: O=C(OC[C@H]1O[C@@H](OC(=O)c2cc(O)c(O)c(O)c2)[C@@H](OC(=O)c2cc(O)c(O)c(O)c2)[C@@H](OC(=O)c2cc(O)c(O)c(O)c2)[C@@H]1OC(=O)c1cc(O)c(O)c(O)c1)c1cc(O)c(O)c(O)c1 [CDE-002]
- PAI-1 inhibitory efficacy (in words) [1]: effective PAI-1 inhibitors

Compound: O=S(=O)(c1ccc(O)c(O)c1)N1CCCCN1S(=O)(=O)c1ccc(O)c(O)c1 [CDE-074]
- IC50 [3]: 1.71 µM

Compound: COc1cc(C(=O)N2CCN(C(=O)c3cc(OC)c(O)c(OC)c3)CC2)cc(OC)c1O [CDE-065]
- IC50 [3]: 423 µM

Compound: O=S(=O)(NNS(=O)(=O)c1ccc(O)cc1)c1ccc(O)cc1 [CDE-072]
- IC50 [3]: 104 µM

Compound: COc1cc(C(=O)N(C)CCN(C)C(=O)c2cc(OC)c(O)c(OC)c2)cc(OC)c1O [CDE-064]
- IC50 [3]: 2200 µM

Second part, the molecule after the results:

- IC50 [3]: 0.28 µM
- effect of pH on PAI-1 inhibition (in words) [1]: increased with increasing pH
- PAI-1 inhibitory efficacy (in words) [1]: effective inhibitors of PAI-1
- Kd [4]: 31 ± 2 nM
Compound: O=C(O[C@H]1CCCC[C@H]1OC(=O)c1cc(O)c(O)c(O)c1)c1cc(O)c(O)c(O)c1 [CDE-031]

- IC50 [3]: 195 µM
Compound: O=C(O[C@@H]1CCC[C@H](OC(=O)c2cc(O)c(O)c(O)c2)C1)c1cc(O)c(O)c(O)c1 [CDE-057]

- IC50 [3]: 332 µM
Compound: O=C(O[C@H]1CC[C@H](OC(=O)c2cc(O)c(O)c(O)c2)CC1)c1cc(O)c(O)c(O)c1 [CDE-062]

- IC50 [3]: 7.85 µM
- PAI-1 inhibitory efficacy (in words) [1]: effective PAI-1 inhibitors
Compound: O=C(OCCCOC(=O)c1cc(O)c(O)c(O)c1)c1cc(O)c(O)c(O)c1 [CDE-013]

- IC50 [3]: 0.07 µM
Compound: CC(C)(C)OC(=O)NCC(COC(=O)c1cc(O)c(O)c(O)c1)OC(=O)c1cc(O)c(O)c(O)c1 (stereo not shown) [CDE-075]

- IC50 [3]: 338 µM
- PAI-1 inhibitory efficacy (in words) [1]: effective PAI-1 inhibitors
Compound: O=C(OCCOCCOCCOCCOC(=O)c1cc(O)c(O)c(O)c1)c1cc(O)c(O)c(O)c1 [CDE-011]
